Data reported in paper PMC9570898, “Comparing Variants of the Cell-Penetrating Peptide sC18 to Design Peptide-Drug Conjugates” (Molecules, 2022).
No end group written: not given here.

Tested on: HEK-293 spheroids
Assay: Flow cytometry of HEK-293 spheroids
Format: cell-based, human
Details: 10 µM CF-labeled peptides, 30 min or 1 h
Method: For the preparation and seeding of spheroids, cells were washed and trypsinized as described above. Cells were transferred into a fresh 15 mL centrifuge tube and centrifuged for 5 min at 300× g and rt. The supernatant was removed carefully and the pellet was resuspended in an appropriate medium supplemented with FBS. Cells were counted and a cell mixture was prepared, which would be sufficient for 100 drops (3 mL). Within this mixture a total amount of 1.5 × 10^6 cells (HEK-293 and HeLa cells) and 20% (v/v) methylcellulose (1.2 mg/mL) were required. The missing volume was filled up with an appropriate medium containing FBS; 30 μL drops were pipetted into the inverted lid of a petri dish (15,000 cells per drop), the bottom was covered with PBS and spheroids were grown in hanging drops for two or three days at 37 °C and 5% CO2, respectively.
For flow cytometry studies with tumor spheroids, the spheroids were prepared and grown as described above (4.7). […] After the spheroids started to fall apart, 850 μL of medium with FBS (indicator free) was added and the spheroids were resuspended to generate a homogenous cell suspension; 200 μL of each sample were transferred into a fresh round-bottom 96-well plate and analyzed on a Guava® easyCyte flow cytometer (Merck, Darmstadt, Germany). […]

RLRKLLRKFLRK-NH2 [sC18*^R,L]
accumulation in spheroids: most efficient variants
